Experimental data published in patent publication US11548875B2, “Inhibitor compounds for male contraception” (University of Washington, priority 2018, dated 2023).
Entries after “also recorded” stand apart in the source; their conditions may differ.

Key:
[1] = system: men; conditions: cited from earlier work
[2] = system: New Zealand white rabbits; experiment: Oral WIN 18,446 in rabbits: ejaculated sperm, testicular retinoic acid, serum testosterone; format: in vivo, rabbit
Description: In 2011, it was discovered that WIN 18,446 suppresses spermatogenesis by inhibiting testicular retinoic acid biosynthesis.
All animals were azoospermic between week 16 of treatment and week 8 of recovery. Animals underwent a hemi-orchiectomy at the end of treatment, which accounts for the 50% reduction in sperm output at the end of recovery. *p<0.05 compared with baseline.
FIG. 1C compares testicular tissue retinoic acid concentration (pmol/g of tissue) in New Zealand white rabbits treated with 200 mg/kg WIN 18,446 daily, orally over time (N=4/group). […] All values are means±SEM. *p<0.05 compared with placebo, **p<0.01.

With `O=C(NCCCCCCCCNC(=O)C(Cl)Cl)C(Cl)Cl` [WIN 18,446] as the molecule, how does the sperm concentration ([1]; at least sixty men, up to one year) read?
Its sperm concentration is “below 1 million sperm/ml of ejaculate”.

What about the “adverse reaction with alcohol” value ([1]; men, when they drank alcohol) of the same molecule?
The value was “disulfiram reaction”.

And the “testicular tissue retinoic acid concentration” value ([2]; 200 mg/kg daily, orally over time)?
Its value is “reduction in intra-testicular retinoic acid”.

What about the ejaculated sperm concentrations ([2]; 200 mg/kg orally for 16 weeks, 200 mg/kg) of the same molecule?
Its ejaculated sperm concentrations is “reversible azoospermia; also recorded: azoospermic”.
